Source: patent US10292912B2, “Personal care compositions” (Colgate-Palmolive Company, priority 2015, dated 2019)

Assay: Preparation and aging of 3% SnCl2.2H2O solutions with TSPP or TKPP
Assay type: physicochemical
Conditions: room temperature
Protocol: Solutions are prepared by dissolving TSPP in deionized water (mixing under heat if necessary) and then adding 0.6 g of SnCl2.2H2O to make 20-gram solutions.
A 3% SnCl2.2H2O solution is used as a control.
Solutions are prepared by dissolving TKPP in deionized water (mixing under heat if necessary) and then adding 0.6 g SnCl2.2H2O to make 20-g solutions.

O.O.[Cl][Sn][Cl] [3% SnCl2.2H2O solution, SnCl2.2H2O]
appearance after aging overnight: form a cloudy precipitate that settles
